According to patent publication US20040121965A1, “Method of treating resistant tumors” (Wyeth Holdings Corporation, priority 2002, published 2004):
Read-outs that look alike come from different tables or passages of the source.

Assays:
KB-3-1 = assay: Cell survival assay (SRB), KB-3-1; format: cell-based, human
How it was run: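 Cells were exposed to serially diluted compound in duplicate for 3 days. Survival was read as protein content by SRB (TCA fixation 1 hr at 4 °C, 0.04% SRB stain, dissolved in 10 mM Tris, absorbance). KB-3-1 was grown in 20% FCS. IC50 is the concentration giving 50% growth inhibition.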

KB-8-5 (MDR1+) [1] = tested on: KB-8-5 (MDR1+)
KB-V1 (MDR1++) [2] = tested on: KB-V1 (MDR1++)
KB-8-5 (MDR1+) [3] = assay: Cell survival assay (SRB), KB-8-5 (MDR1+); settings: for RR, relative resistance: IC50 KB-8-5 / IC50 KB-3-1, Table 3; for IC50: Homo sapiens
KB-V1 (MDR1++) [4] = assay: Cell survival assay (SRB), KB-V1 (MDR1++); settings: for RR, relative resistance: IC50 KB-V1 / IC50 KB-3-1, Table 3; for IC50: Homo sapiens
KB-PTX-15+099 = assay: Cell survival assay, KB-PTX-15+099 (paclitaxel-resistant, non-MDR); format: cell-based, human; settings: for Average Relative Resistance (RR): IC50 KB-PTX-15+099 / IC50 KB-3-1, less than 1 = increased sensitivity; for IC50: KB-PTX-15+099, Table 6, read-out: KB-PTX-15+099 IC50
KB-HTI-4.0 = assay: Cell survival assay, KB-3-1 line made resistant to Example 129 (KB-HTI-4.0); format: cell-based, human; settings: for IC50: KB-3-1 line made resistant to Example 129, Table 8, read-out: KB-HTI-4.0 IC50; for (RR) relative resistance vs. parental cells: KB-HTI-4.0 vs KB-3-1
Source text: Cells lines with previously known mechanisms of resistance. […] Res. 8: 207-218,1996); KB-3-1 (parental derived from an epidermoid carcinoma), KB-8.5, KB-V1 (Akiyama S-I, Fojo A, Hanover J A, Pastan I, Gottesman M M. Isolation and genetic characterization of human KB cell lines resistant to multiple drugs. Somatic Cell Mol. Gen., 11: 117-126,1985; Shen D-W, Cardarelli C, Hwang J, Cornwell M, Richert N, Ishii S, Pastan I, Gottesman MM. […] J. Biol. Chem., 261: 7762-7770, 1986); and HL-60 (parental derived from human leukemia) and HL60/AR (McGrath T., Center M. S. Adriamycin resistance in HL60 cells in the absence of detectable P-glycoprotein. Biochem. Res. Commun., 145:1171-1176,1987); A549 and A549.EpoB40 (He L., Yang C.-P.H., Horwitz S. B. Mutations in p-tubulin map to domains involved in regulation of microtubule stability in epothilone-resistant cell lines. Molecular Cancer Therapeutics. 1: 3-10, 2001). HCT-15 human colon carcinoma and DLD-1 human colon carcinoma are obtained from American Tissue Culture Collection. The MX-1W carcinoma is a Wyeth variant orginally obtained as MX-1 breast carcinoma from the National Cancer Institute. Cell lines selected for resistance to Representative Example 129. KB-3-1 cells are selected for resistance to Example 129 by chronically exposing cells to increasing concentrations of Example 129.
2.2. Cell Survival Assay: Standard Pharmacological Test Procedure. The concentration of candidate inhibitor required to inhibit 50% of cell growth (IC50) is done according to previously reported methods. […] Compounds are serially diluted into media as 2× stocks and 100 μl added to cells in duplicate. Compounds are incubated with cells for 3 days. At the end of the incubation period the sulforhodamine B (SRB) assay, which measures protein content as an assessment of cell survival, is performed as described previously (Skehan P, Storeng R, Scudiero D, Monks A, McMahon J, Vistica D, Warren J T, Bokesch H, Kenney S, Boyd MR. New calorimetric cytotoxicity assay for anticancer-drug screening. J Natl Cancer Inst 1990 Jul 4;82(13):1107-12) with some modification as follows. For KB-3-1 cells with 20% FCS, media is gently decanted and replaced with 200 μl of serum-free media mixed with cold 50% TCA for a final concentration of 10% TCA. The plates are incubated for 1 hr at 4° C., followed by washing 5 times in cold distilled water, then air dried overnight. The fixed cells are stained for 10 min with 80 μl of 0.04% SRB solution prepared in 1% glacial acetic acid. Stain is discarded and plates washed 5 times in 1% glacial acetic acid, then air-dried until completely dry. Stained cell product is dissolved in 150 μl of 10 mM Trizma Base and placed on a shaker for 20 minutes until fully dissolved. Absorbance is read on a Victor V multi-label plate reader (Perkin Elmer, Gaithersburg, Md.).
Cells are selected for resistance to Example 129 to understand the frequency and mechanistic basis of resistance.

[5] = tested on: Human Melanoma Carcinoma Lox; settings: staged LOX xenograft; at MTD ('<': MTD not achieved); days 11-15
Protocol: 2.4. Growth of Tumors in Nude Mice. […] In these experiments, xenografts are implanted subcutaneously into the flanks of nude mice. […] Relative tumor mass compared to controls are assessed during the 21-day post-staging period.
Groups of 5 female nu/nu mice are injected with 1.5×10^6 KB-3-1 (A) or Lox cells (B). […] Relative tumor growth is determined during the experiment and % T/C calculated. Statistical analyses are Student's t-test of treated time points vs. vehicle (*, P<0.05; **, P<0.01)

MX-1W tumor = assay: Growth of tumors in nude mice, MX-1W xenograft; format: in vivo
Source text: 2.4. Growth of Tumors in Nude Mice.

[6] = KB-3-1 cells (paclitaxel-sensitive parent), read-out: In vitro IC50 (nM) KB-3-1
[7] = Homo sapiens, KB 3-1, 72 h, amount of drug needed to kill 50% of cells after three days continuous exposure, Table 11, read-out: IC50 in parental cell line KB-3-1

## N,β,β-trimethyl-L-phenylalanyl-N^1-{(1S,2E)-4-[[(1S,2E)-3-carboxy-1-isopropylbut-2-enyl](methyl)amino]-1-isopropyl-3-methyl-4-oxobut-2-enyl-N^1,3-dimethyl-L-valinamide [Example 114]
KB-3-1; [6]
  IC50: 55 nM
KB-8-5 (MDR1+) [1]
  IC50: 192 nM
KB-V1 (MDR1++) [2]
  IC50: > 3000 nM
KB-8-5 (MDR1+) [3]
  Ratio KB85/KB: 3.5

## CN[C@H](C(=O)N[C@@H](CCC(=O)O)C(=O)N(C)[C@H](/C=C(\C)C(=O)O)C(C)C)C(C)(C)c1ccccc1 [Example 139, N,β,β-trimethyl-L-phenylalanyl-N^1-[(1S,2E)-3-carboxy-1-isopropyl-2-butenyl]-N^1-methyl-L-alpha-glutamine]
KB-3-1; [6]
  IC50: 503 nM
KB-8-5 (MDR1+) [1]
  IC50: 975 nM
KB-V1 (MDR1++) [2]
  IC50: ≥ 3000 nM
KB-8-5 (MDR1+) [3]
  Ratio KB85/KB: 1.9
KB-V1 (MDR1++) [4]
  Ratio KBV1/KB: 6.0

## (E,4S)-4-[((2S)-3,3-dimethyl-2-{[(2S)-3-methyl-2-(methylamino)-3-(1-methyl-1H-ethyl-1H-indol-3-yl)butanoyl]amino}butanoyl)amino]-2,5-dimethyl-2-hexenoic Acid [Example 132]
KB-3-1; [6]
  IC50: 0.51 nM
KB-V1 (MDR1++) [2]
  IC50: 890 nM

## CC[C@H](C)[C@@H]([C@@H](CC(=O)N1CCC[C@H]1[C@H](OC)[C@@H](C)C(=O)N[C@@H](Cc1ccccc1)c1nccs1)OC)N(C)C(=O)[C@@H](NC(=O)[C@H](C(C)C)N(C)C)C(C)C [dolastatin-10]
KB-3-1; KB-3-1, Table 6, read-out: KB-3-1 IC50
  IC50: 0.041 ± 0.01 nM
KB-3-1; KB-3-1 parental, Table 8, read-out: KB-3-1 IC50
  IC50: 0.03 ± 0.02 nM
KB-PTX-15+099
  Average Relative Resistance (RR): (0.30)
  IC50: 0.012 ± 0.004 nM
KB-PTX-15+099; vs KB-3-1
  increased sensitivity of KB-PTX-15+099 cells: 3.4 fold
KB-HTI-4.0
  IC50: 0.83 ± 0.33 nM
  (RR) relative resistance vs. parental cells: (28)
KB-8-5 (MDR1+) [3]
  RR, relative resistance: 7.1
KB-V1 (MDR1++) [4]
  RR, relative resistance: 573

## CCN(C(=O)[C@@H](NC(=O)[C@@H](NC)C(C)(C)c1ccccc1)C(C)C)[C@H](/C=C(\C)C(=O)O)C(C)C.O=C(O)C(F)(F)F [Example 95, N,β,β-trimethyl-L-phenylananyl-N^1-[(1S,2E)-3-carboxy-1-isopropylbut-2-enyl]-N^1-ethyl-L-valinamide Trifluoroacetic Acid]
KB-3-1; [6]
  IC50: 38.6 nM
KB-8-5 (MDR1+) [1]
  IC50: 82 nM
KB-V1 (MDR1++) [2]
  IC50: 2550 nM
KB-8-5 (MDR1+) [3]
  Ratio KB85/KB: 2.1
KB-V1 (MDR1++) [4]
  Ratio KBV1/KB: 66.0

## (2E,4S)4-[{(2R)-2-cyclohexyl-2-[(N,β,1-trimethyl-L-phenylalanyl)amino]ethanoyl}(methyl)amino]-2,5-dimethylhex-2-enoic Acid Trifluoroacetic Acid [Example 98]
KB-3-1; [6]
  IC50: 133 nM
KB-8-5 (MDR1+) [1]
  IC50: 186 nM
KB-V1 (MDR1++) [2]
  IC50: 2940 nM

## CN[C@H](C(=O)N[C@H](C(=O)N(C)[C@H](/C=C(\C)C(=O)O)C(C)C)C(C)(C)C)C(C)(C)c1cccc(C)c1 [Example 8, N,β,β,3-Tetramethyl-L-phenylalanyl-N^1-[(1S,2E)-3-carboxy-1-isopropyl-2-butenyl]-N^1,3-dimethyl-L-valinamide]
KB-3-1; [7]
  IC50: 0.3 nM
KB-3-1; Homo sapiens, KB 3-1, KB-3-1 cells (paclitaxel-sensitive parent), read-out: In vitro IC50 (nM) KB-3-1
  IC50: 0.274 nM
[5]
  Activity in nude mice animal model (% T/C @ MTD on days 11-15) LOX: 2%
MX-1W tumor; mouse, in vivo
  effect on growth of MX-1W (paclitaxel-resistant) tumor: inhibited the growth
MX-1W tumor; staged MX-1W xenograft, at MTD, days 11-15
  Activity in nude mice animal model (% T/C @ MTD on days 11-15) MX-1W: 9%
KB-8-5 (MDR1+) [3]
  Ratio KB85/KB: 2.6
KB-8-5 (MDR1+) [3]; MDR1, read-out: In vitro IC50 (nM) KB85
  IC50: 0.699 nM
KB-V1 (MDR1++) [4]
  Ratio KBV1/KB: 68.5
KB-V1 (MDR1++) [4]; read-out: In vitro IC50 (nM) KBV1
  IC50: 18.7 nM

## CN[C@@H](C(=O)N[C@H](C(=O)N(C)[C@H](/C=C(\C)C(=O)O)C(C)C)C(C)(C)C)C(C)(C)c1ccc(OC(C)C)cc1 [Example 69, 0-isopropyl-N,β,β-trimethyl-D-tyrosyl-N^1-[(1S,2E)-3-carboxy-1-isopropylbut-2-enyl]-N^1,3-dimethyl-L-valinamide]
KB-3-1; [6]
  IC50: 55 nM
KB-8-5 (MDR1+) [1]
  IC50: 151 nM
KB-V1 (MDR1++) [2]
  IC50: 2340 nM
KB-8-5 (MDR1+) [3]
  Ratio KB85/KB: 2.8
KB-V1 (MDR1++) [4]
  Ratio KBV1/KB: 42.6

## CCOC(=O)/C(C)=C/[C@H](C(C)C)N(C)C(=O)[C@@H](NC(=O)[C@H](NC)C(C)(C)c1ccc(C)c(C)c1)C(C)(C)C [Example 13b, N,β,β-3,4-pentamethyl-D-phenylalanyl-N^1-[(1S,2E)4-ethoxy-1-isopropyl-3-methyl4-oxo-2-butenyl]-N^1,3-dimethyl-L-valinamide]
KB-3-1; [6]
  IC50: 295 nM
KB-8-5 (MDR1+) [1]
  IC50: 1410 nM
KB-V1 (MDR1++) [2]
  IC50: ≥ 3000 nM
KB-8-5 (MDR1+) [3]
  Ratio KB85/KB: 4.8
KB-V1 (MDR1++) [4]
  Ratio KBV1/KB: 10.2

## (2E,4S)-2,5-dimethyl4-(methyl{(2S)-2-[(N,β,1-trimethyl-L-phenylalanyl)amino]butanoyl}amino)hex-2-enoic Acid Trifluoroacetic Acid [Example 99]
KB-3-1; [6]
  IC50: 60 nM
KB-8-5 (MDR1+) [1]
  IC50: 87 nM
KB-V1 (MDR1++) [2]
  IC50: 1320 nM

## CC(=O)O[C@@]12CO[C@@H]1C[C@H](O)[C@@]1(C)C(=O)[C@H](O)C3=C(C)[C@@H](OC(=O)[C@H](O)[C@@H](NC(=O)OC(C)(C)C)c4ccccc4)C[C@@](O)([C@@H](OC(=O)c4ccccc4)[C@H]21)C3(C)C [docetaxel, reference compound]
KB-3-1; [7]
  IC50: 0.6 nM
KB-3-1; Homo sapiens, KB-3-1, Table 6, read-out: KB-3-1 IC50
  IC50: 0.594 ± 0.098 nM
KB-3-1; Homo sapiens, KB-3-1 parental, Table 3, read-out: KB-3-1 IC50, nM (N)
  IC50: 0.55 ± 0.45 nM
KB-3-1; Homo sapiens, KB-3-1 parental, Table 8, read-out: KB-3-1 IC50
  IC50: 0.44 ± 0.2 nM
KB-PTX-15+099; Homo sapiens
  IC50: 4.49 ± 1.91 nM
KB-PTX-15+099
  Average Relative Resistance (RR): (7.6)
KB-PTX-15+099; vs KB-3-1
  resistance of KB-PTX-15+099 cells: 7.6 fold
KB-HTI-4.0; Homo sapiens
  IC50: 1.25 ± 0.76 nM
KB-HTI-4.0
  (RR) relative resistance vs. parental cells: (3)
KB-8-5 (MDR1+) [3]; MDR1, read-out: KB-8-5 (MDR1+) IC50, nM (N)
  IC50: 9.7 ± 6.6 nM
KB-8-5 (MDR1+) [3]
  RR, relative resistance: 18
KB-8-5 (MDR1+) [3]; KB-8-5 (KB-85) vs KB-3-1, in vitro
  resistance of KB-8-5 cells: 18 fold
KB-V1 (MDR1++) [4]; read-out: KB-V1 (MDR1++) IC50, nM (N)
  IC50: 368 ± 257 nM
KB-V1 (MDR1++) [4]
  RR, relative resistance: 669

## CN[C@H](C(=O)N[C@H](C(=O)N(C)[C@H](/C=C(\C)C(=O)O)C(C)C)C(C)(C)C)C(C)(C)c1ccccc1 [Example 134, (E,4S)-4-[((2S)-3,3-dimethyl-2-{[(2S)-3-methyl-2-(methylamino)-3-phenylbutanoyl]amino}butanoyl)(methyl)amino]-2,5-dimethyl-2-hexenoic Acid]
KB-3-1; read-out: In vitro IC50 (nM) KB-3-1
  IC50: 28 nM
KB-8-5 (MDR1+) [1]; human
  IC50: 39 nM
KB-V1 (MDR1++) [2]; human
  IC50: 879 nM
KB-8-5 (MDR1+) [3]
  Ratio KB85/KB: 1.4
KB-V1 (MDR1++) [4]
  Ratio KBV1/KB: 31.3
